Experimental data as given in ChEMBL document CHEMBL1137576, “Interactions of hepatitis B core antigen and peptide inhibitors” (J Med Chem, 2007).
Where a SMILES comes first, the peptide text is derived from it.

How the values were obtained:
Core antigen = Core antigen (Hepatitis B virus, UniProt Q03732); test: (§1) Binding affinity to HBcAg
[1] = molecular target: Core antigen (Hepatitis B virus) (UniProt Q03732); test: as §1
Core antigen (Hepatitis B virus), sequence (Q03732 as listed by the source): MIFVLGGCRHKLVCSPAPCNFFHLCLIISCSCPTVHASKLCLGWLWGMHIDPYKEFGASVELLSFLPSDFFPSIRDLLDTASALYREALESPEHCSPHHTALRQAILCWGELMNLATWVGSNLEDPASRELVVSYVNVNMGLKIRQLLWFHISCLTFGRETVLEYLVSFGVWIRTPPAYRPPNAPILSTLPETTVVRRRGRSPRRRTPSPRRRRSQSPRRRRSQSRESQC

Core antigen, sequence (Q03732 whole entry): as the sequence (Q03732 as listed by the source) above

| SMILES | Kd (Core antigen) [µM] | Ka [1] |
| --- | --- | --- |
| CSCC[C@H](NC(=O)[C@H](CCCNC(=N)N)NC(=O)CNC(=O)[C@H](CC(C)C)NC(=O)[C@H](CC(C)C)NC(=O)[C@H](CO)NC(=O)[C@H](CCCNC(=N)N)NC(=O)[C@H](Cc1cnc[nH]1)NC(=O)[C@@H](N)CCSC)C(=O)N[C@@H](CCCCN)C(=O)NCC(=O)N[C@@H](C)C(=O)O | 79.4 | 1.26 10^4/M |
| CC[C@H](C)[C@H](NC(=O)[C@H](CC(N)=O)NC(=O)[C@H](CO)NC(=O)[C@H](Cc1ccccc1)NC(=O)[C@H](Cc1ccccc1)NC(=O)[C@H](CO)NC(=O)[C@@H](N)Cc1c[nH]c2ccccc12)C(=O)O (H-WSFFSNI-OH) | 18.5 | 5.4 10^4/M |
